In the CheMixHub viscosity set:
Several values for one entry are separate records, joined by “and”; a condition that tells them apart may be missing. Equal values may be shown once.

How the values were obtained:
[1] = xn = mol fraction of the nth substance listed

C1C[C@@H]2[C@H]3CC[C@H](C3)[C@@H]2C1
viscosity
Conditions | 293.15 K | 298.15 K | 303.15 K | 308.15 K
100 kPa | 2.974 mPa·s and 3.07 mPa·s | 2.785 mPa·s and 2.694 mPa·s | 2.535 mPa·s and 2.454 mPa·s | 2.243 mPa·s
101 kPa | – | 2.77 mPa·s | – | –
101.33 kPa | – | 2.769 mPa·s | – | 2.283 mPa·s

CCCCCCCCCCCCC
viscosity
Conditions | 293.15 K | 298.15 K | 308.15 K | 318.15 K | 323.15 K
100 kPa | 1.8 mPa·s and 1.803 mPa·s | 1.71 mPa·s | 1.428 mPa·s and 1.319 mPa·s | 1.215 mPa·s | 1.124 mPa·s and 1.1 mPa·s and 1.104 mPa·s
103 kPa | – | 1.63 mPa·s | 1.356 mPa·s | 1.146 mPa·s | –

CCC(N)C(=O)[O-].[Na+] (configuration not stated) + O
viscosity [mPa·s], [1], 101.3 kPa
Conditions | x1 = 0.009 | x1 = 0.018 | x1 = 0.029 | x1 = 0.039 | x1 = 0.05 | x1 = 0.062
303.15 K | 1.034 | 1.36 | 1.815 | 2.492 | 3.501 | 4.954
308.15 K | 0.924 | 1.217 | 1.595 | 2.167 | 3.005 | 4.223
313.15 K | 0.836 | 1.093 | 1.417 | 1.91 | 2.608 | 3.646
318.15 K | 0.76 | 0.98 | 1.27 | 1.695 | 2.295 | 3.173
323.15 K | 0.697 | 0.9 | 1.143 | 1.516 | 2.029 | 2.777

CCCCCCCCCCCCCC[P+](CCCCCC)(CCCCCC)CCCCCC.c1c[n-]nn1 + O
Conditions | viscosity [mPa·s]
[1], 298.15 K, 100 kPa, x2 = 0.8003 | 106

CCCCN(CCO)CCO + O
viscosity [mPa·s], [1], 101 kPa
Conditions | 303.15 K | 308.15 K | 313.15 K | 318.15 K | 323.15 K
x1 = 0.0501 | 3.144 | 2.695 | 2.335 | 2.041 | 1.795
x1 = 0.0999 | 6.924 | 5.705 | 4.763 | 4.027 | 3.434
x1 = 0.15 | 11.35 | 9.112 | 7.428 | 6.13 | 5.123
x1 = 0.2 | 15.8 | 12.47 | 10.01 | 8.116 | 6.674
x1 = 0.3013 | 25.17 | 19.3 | 15.07 | 11.97 | 9.604
x1 = 0.3988 | 32.99 | 24.94 | 19.22 | 15.07 | 11.96
x1 = 0.4994 | 39.06 | 29.14 | 22.33 | 17.44 | 13.76
x1 = 0.6027 | 42.39 | 31.62 | 24.2 | 18.83 | 14.84
x1 = 0.7058 | 43.85 | 32.83 | 25.16 | 19.65 | 15.51
x1 = 0.8009 | 43.72 | 32.88 | 25.37 | 19.83 | 15.71
x1 = 0.899 | 42.96 | 32.66 | 25.3 | 19.86 | 15.82

Nc1ccc(S(=O)(=O)[O-])cc1.[Na+] + O
viscosity [mPa·s], [1], 101 kPa
Conditions | x1 = 9e-05 | x1 = 0.00018 | x1 = 0.0009 | x1 = 0.0018 | x1 = 0.00448 | x1 = 0.00893 | x1 = 0.0133 | x1 = 0.0177
298.15 K | 0.899 | 0.9 | 0.915 | 0.93 | 0.984 | 1.076 | 1.174 | 1.281
318.15 K | 0.598 | 0.599 | 0.61 | 0.62 | 0.654 | 0.71 | 0.771 | 0.838

O=C(O)c1cccnc1 + O
viscosity [mPa·s], [1]
Conditions | 100 kPa | 101 kPa
298.15 K, x1 = 0.000225 | 0.8934 | 0.8934
298.15 K, x1 = 0.000268 | 0.903 | –
298.15 K, x1 = 0.000452 | 0.8963 | 0.8963
298.15 K, x1 = 0.0005074 | – | 0.8966
298.15 K, x1 = 0.0007821 | – | 0.9016
298.15 K, x1 = 0.000808 | 0.908 | –
298.15 K, x1 = 0.000907 | 0.902 | 0.902
298.15 K, x1 = 0.00135 | 0.913 | –
298.15 K, x1 = 0.0015 | – | 0.893
298.15 K, x1 = 0.00162 | 0.916 | –
303.15 K, x1 = 0.000542 | 0.809 | –
303.15 K, x1 = 0.000808 | 0.812 | –
303.15 K, x1 = 0.00108 | 0.814 | –
308.15 K, x1 = 0.000452 | – | 0.7233
308.15 K, x1 = 0.0005074 | – | 0.7239
308.15 K, x1 = 0.00108 | 0.746 | –
308.15 K, x1 = 0.001153 | – | 0.7288
308.15 K, x1 = 0.001301 | – | 0.7321
308.15 K, x1 = 0.00135 | 0.75 | –
308.15 K, x1 = 0.00136 | 0.732 | 0.732
308.15 K, x1 = 0.001617 | – | 0.7347
308.15 K, x1 = 0.00162 | 0.754 | –
308.15 K, x1 = 0.001957 | – | 0.7385
313.15 K, x1 = 0.000808 | 0.673 | –
313.15 K, x1 = 0.00108 | 0.677 | –
313.15 K, x1 = 0.00135 | 0.681 | –
313.15 K, x1 = 0.00162 | 0.685 | –
318.15 K, x1 = 0.000225 | 0.5976 | 0.5976
318.15 K, x1 = 0.000268 | 0.61 | –
318.15 K, x1 = 0.000542 | 0.614 | –
318.15 K, x1 = 0.0007 | – | 0.584
318.15 K, x1 = 0.0007821 | – | 0.602
318.15 K, x1 = 0.000808 | 0.617 | –
318.15 K, x1 = 0.000907 | 0.6036 | 0.6036
318.15 K, x1 = 0.00108 | 0.62 | –
318.15 K, x1 = 0.001153 | – | 0.6035
318.15 K, x1 = 0.00135 | 0.624 | –
318.15 K, x1 = 0.00136 | 0.608 | 0.608
318.15 K, x1 = 0.0015 | – | 0.587
318.15 K, x1 = 0.001617 | – | 0.6081
318.15 K, x1 = 0.00162 | 0.628 | –
318.15 K, x1 = 0.001957 | – | 0.61
318.15 K, x1 = 0.0022 | – | 0.589

O=[N+]([O-])[O-].O=[N+]([O-])[O-].[Ni+2] + O
Conditions | viscosity [mPa·s]
[1], 322.46 K, 100 kPa, x1 = 0.03889 | 1.225

[Cs+].[I-] + O
[1], 310.15 K, 101 kPa
Conditions | viscosity [mPa·s]
x1 = 0.000182 | 0.6958
x1 = 0.000913 | 0.6971
x1 = 0.001829 | 0.6934
x1 = 0.002695 | 0.6844
x1 = 0.003679 | 0.6676
x1 = 0.005197 | 0.6281
x1 = 0.005988 | 0.6009

[F-].[Na+] + O
viscosity [mPa·s], [1], 101 kPa
Conditions | x1 = 0.0009 | x1 = 0.0018 | x1 = 0.002 | x1 = 0.0027 | x1 = 0.0036 | x1 = 0.005 | x1 = 0.009
303.15 K | 0.809 | 0.82 | 0.819 | 0.826 | 0.835 | 0.853 | 0.896
308.15 K | 0.734 | 0.746 | 0.747 | 0.755 | 0.761 | 0.775 | 0.81
313.15 K | 0.667 | 0.682 | – | 0.688 | 0.694 | 0.707 | 0.738
318.15 K | 0.61 | 0.621 | 0.623 | 0.629 | 0.635 | 0.648 | 0.675
